Structures can show the parent of a compound that is named as a salt.
Columns and labels:
[1] = system: murine leukemic cells L5178Y; assay: Inhibition of reproduction of murine leukemic cells L5178Y by cytotoxic liponucleotide analogs - 72 hours; type: cell-based; conditions: for IC50: read-out: MOLAR CON[…] 50 PERCENT INHIBITION, 50% decrease in number of doublings vs untreated controls, read-out: MOLAR CONCENTRATION CAUSING 50 PERCENT INHIBITION
Procedure: The leukemic cells L5178Y were grown from an inoculum of 4×10^3 cells per ml for a period of 72 hours in the presence of different levels (10^-4 -10^-7 M) of drugs.

[2] = system: leukemia L5178Y ascites cells; assay: Survival time of mice bearing leukemia L5178Y ascites cells, Ia-11-diglyceride; type: in vivo, mouse; conditions: for AVERAGE SURVIVAL (DAYS ± S.E.): control 17.6 ± 0.2; for prolongation of survival times: mice bearing leukemia L5178Y cells
Procedure: Mice (10/group) were inoculated with L5178Y cells (5×10^6 cells/mouse) and drug injections were begun on the second day. The drug in a volume of 0.1 ml was injected intraperitioneally once a day for four consecutive days. Saline was administered to the controls. The percent change in body weight from the onset to the termination of therapy was used as an indication of drug toxicity.

[3] = system: mouse antisheep erythrocyte antibody-forming cells; assay: Suppression of IgM and IgG mouse antisheep erythrocyte antibody-forming cells (AFC); type: in vivo
[4] = system: human colon carcinoma HCT-15 cells; assay: Antitumor activity against human colon carcinoma in immunosuppressed mice; type: in vivo, mouse; conditions: for TUMOR WEIGHT: control 89.7 ± 4.9
Procedure: Male B6D2F1 mice (18-22 g, 4/group) were immunosuppressed with 0.25 ml subcutaneous injection of ATS on days -1,0,1,3 and 6. Human colon carcinoma cells (5.0×10^6 cells/mouse) were inoculated subcutaneously into an area slightly above the left inguinal region on day 0. The drug dissolved in saline to a volume of 0.1 ml was injected intraperitoneally once a day for four consecutive days. Saline was administered to the controls. The percent change in body weight from the onset to the day of weighing the tumor was used as an indication of drug toxicity.

CMI-DTH reactions = assay: CMI-DTH reactions; type: in vivo, mouse
[5] = system: murine leukemic cells L5178Y; assay: Inhibition of reproduction of murine leukemic cells L5178Y by liponucleotides - 2 hours (dilute agar colony method); type: cell-based; conditions: for viability at 100 µM / viability at 10 µM / viability at 1 µM / viability at 0.1 µM: Mus musculus, L5178Y, 2 hours, untreated control normalized to 100%, read-out: PERCENT SURVIVAL; for viability at 100 µM: 1 × 10^-4 M; for viability at 10 µM: 1 × 10^-5 M; for viability at 1 µM: 1 × 10^-6 M; for viability at 0.1 µM: 1 × 10^-7 M
Procedure: L5178Y cells (2×10^5 /ml) in the exponential phase of growth were incubated singly with drugs for a period of 2 hours at concentrations of […] to 1×10^-7 M. Cell viability was determined by the dilute agar colony method. Each observation represents the mean value of three experimentations with four replicates per experiment. A minimum of 200 colonies were counted for each group. The cloning efficiency of the untreated cells was approximately 75%; all values were normalized to 100%.

leukemic cells L5178Y = assay: Animal antitumor activity of liponucleotides (leukemic cell kill in the peritoneal cavity); type: in vivo, mouse; conditions: for PERCENT SURVIVAL: L5178Y i.p., control 100
Procedure: The leukemic cells L5178Y (4×10^5 cells/mouse) were injected intraperitoneally on day 0. Drugs at various dosages (20 mg/kg, 40 mg/kg and 100 mg/kg) were injected on day 5 and incubated for 2 hours. At the end of the incubations, 5.0 ml of Fischer's medium containing 10% horse serum (FMS) was injected […].). After mixing, 1.0 ml aliquots were withdrawn and transferred to culture tubes containing 5.0 ml of FMS. Cells were centrifuged immediately, washed 2 xs and resuspended in 5.0 ml of FMS. Cell viability was determined by the dilute agar colony method.

[6] = system: leukemia L5178Y ascites cells; assay: Survival time of mice bearing leukemia L5178Y ascites cells, Ia-11-dipalmitin; type: in vivo, mouse; conditions: for PER CENT CHANGE IN LIFE SPAN / AVERAGE SURVIVAL / PER CENT CHANGE IN WEIGHT: i.p. twice a day ×4 days; for AVERAGE SURVIVAL: control 15.0 ± 0.28; for PER CENT CHANGE IN WEIGHT: control -1.4
Procedure: Mice (10/group) were inoculated with L5178Y cells (5×10^6 cells/mouse) and drug injections were begun on the second day. The drug in a volume of 0.2 ml was injected intraperitoneally twice a day at a five-hour interval for four consecutive days. Distilled water was administered to the controls. The percent change in body weight from the onset to the termination of therapy was used as an indication of drug toxicity.

LD10 (lethality) = type: in vivo; conditions: ×4 regimen
[7] = 50 mg/kg/day×4, intraperitoneal
[8] = 30 mg/kg daily dosage (first 30 line)
[9] = 30 mg/kg daily dosage (second 30 line)

CCCCCCCCCCCCCCCC(=O)OCC(COP(=O)(O)OP(=O)(O)OC[C@H]1O[C@@H](n2ccc(N)nc2=O)[C@@H](O)[C@@H]1O)OC(=O)CCCCCCCCCCCCCCC (stereo partly shown)
IC50 ([1]; Mus musculus, L5178Y, 72 hours): 14 µM

1-Beta-D-Arabinofuranosylcytosine-5'-diphosphate-L-diglyceride Diammonium Salt [Ia-11-Diglyceride]
antitumor activity in culture relative to Ia-11-dipalmitin ([1]; in culture (Table 2)): superior activity
% CHANGE IN LIFE SPAN ([2]; 12.5 mg/kg daily i.p. ×4 days): +29.6%
AVERAGE SURVIVAL (DAYS ± S.E.) ([2]; 12.5 mg/kg daily i.p. ×4 days): 22.0 ± 0.6 days
% CHANGE IN LIFE SPAN ([2]; 25.0 mg/kg daily i.p. ×4 days): +44.3%
AVERAGE SURVIVAL (DAYS ± S.E.) ([2]; 25.0 mg/kg daily i.p. ×4 days): 25.4 ± 1.1 days
% CHANGE IN LIFE SPAN ([2]; 50.0 mg/kg daily i.p. ×4 days): +93.2%
AVERAGE SURVIVAL (DAYS ± S.E.) ([2]; 50.0 mg/kg daily i.p. ×4 days): 34.0 ± 2.4 days
log cell kill ([2]; 50 mg/kg/day×4): 4 log
prolongation of survival times ([2]; 50 mg/kg/day×4): 93%
difference in antitumor activity in vivo vs Ia-11-dipalmitin ([2]; Table 4 compared with Table 5): significant difference in antitumor activity in vivo
in vivo activity relative to cytosine arabinoside ([2]; leukemia L5178Y in vivo (Table 4)): significantly more active than cytosine arabinoside
IgG AFC/10^6 spleen cells [3, 7]: background levels
IgG AFC/spleen [3, 7]: background levels
IgM AFC/10^6 spleen cells [3, 7]: background levels
IgM AFC/spleen [3, 7]: background levels
suppression of IgM and IgG AFC relative to cytosine arabinoside "equivalent" ([3]; mouse, in vivo): more pronounced suppression
PER CENT OF CONTROL TUMOR WEIGHT ([4]; 25 mg/kg daily i.p. ×4 days): 68.4 ± 15.6 PER CENT
TUMOR WEIGHT ([4]; 25 mg/kg daily i.p. ×4 days): 61.3 ± 14.0 mg
PER CENT OF CONTROL TUMOR WEIGHT ([4]; 50 mg/kg daily i.p. ×4 days, *P 0.005 (1tailed "t" test)): 21.0 ± 13.5 PER CENT
TUMOR WEIGHT ([4]; 50 mg/kg daily i.p. ×4 days): 18.7 ± 12.0 mg
inhibition of tumor growth ([4]; 50 mg/kg/day×4, excised tumors weighed, vs non-treated control): 80%
delay of peak DTH response (CMI-DTH reactions; 50 mg/kg, (day 4-7) or more): ≥ 3 days
immunostimulatory activity on DTH (CMI-DTH reactions; 50 mg/kg, later periods, judged by very late rising profile of response): may have immunostimulatory activity on DTH at later periods

CCCCCCCCCCCCCCCC(=O)OCC(COP(=O)(O)OP(=O)(O)OC[C@H]1O[C@@H](n2ccc(N)nc2=O)[C@H](O)[C@@H]1O)OC(=O)CCCCCCCCCCCCCCC (mixture of isomers) [Ia-1-Dipalmitin, 1-Beta-D-Ribofuranosylcytosine-5'-Diphosphate-DL-1,2-Dipalmitin Diammonium Salt]
viability at 100 µM [5]: 65.7 ± 5.69%
viability at 10 µM [5]: 76.7 ± 6.66%
viability at 1 µM [5]: 94.7 ± 4.04%
viability at 0.1 µM [5]: 94.7 ± 5.03%
activity relative to the CLNA molecule containing the beta-D-arabinofuranosyl moiety ([5]; in culture (Table 1)): activity comparable to the CLNA molecule
PERCENT SURVIVAL (leukemic cells L5178Y; 20 mg/kg on day 5, 2 hours): 57%
PERCENT SURVIVAL (leukemic cells L5178Y; 40 mg/kg on day 5, 2 hours): 54%
PERCENT SURVIVAL (leukemic cells L5178Y; 100 mg/kg on day 5, 2 hours): 43%
activity relative to the CLNA molecule containing the beta-D-arabinofuranosyl moiety (leukemic cells L5178Y; peritoneal cavity (Table 3)): activity comparable to the CLNA molecule

CCCCCCCCCCCCCCCC(=O)OCC(COP(=O)(O)OP(=O)(O)OC[C@H]1O[C@@H](n2ccc(N)nc2=O)[C@@H](O)[C@@H]1O)OC(=O)CCCCCCCCCCCCCCC (mixture of isomers) [Ia-11-Dipalmitin, 1-Beta-D-Arabinofuranosylcytosine-5'-diphosphate-DL-1,2-dipalmitin Diammonium Salt]
viability at 100 µM [5]: 65 ± 1.73%
viability at 10 µM [5]: 84.3 ± 0.58%
viability at 1 µM [5]: 90 ± 4.58%
viability at 0.1 µM [5]: 94 ± 3%
PERCENT INHIBITION AT 10^-4 M ([1]; 10^-4 M, 72 hours, listed as ara-CDP-dipalmitin, Diammonium Salt): less than 50%
inhibition at 100 µM ([1]; Mus musculus, L5178Y, 72 h, 10^-4 M, 72 hours, read-out: PERCENT INHIBITION AT 10^-4 M): 42%
PER CENT CHANGE IN LIFE SPAN [6, 8]: +24.0 PER CENT
AVERAGE SURVIVAL [6, 8]: 18.6 ± 0.22 days
PER CENT CHANGE IN WEIGHT [6, 8]: -5.0 PER CENT
PER CENT CHANGE IN LIFE SPAN [6, 9]: +32.0 PER CENT
AVERAGE SURVIVAL [6, 9]: 19.8 ± 0.82 days
PER CENT CHANGE IN WEIGHT [6, 9]: -5.86 PER CENT
PER CENT CHANGE IN LIFE SPAN ([6]; 50 mg/kg daily dosage): +37.3 PER CENT
AVERAGE SURVIVAL ([6]; 50 mg/kg daily dosage): 20.6 ± 0.76 days
PER CENT CHANGE IN WEIGHT ([6]; 50 mg/kg daily dosage): -3.5 PER CENT
in vivo activity relative to cytosine arabinoside ([6]; leukemia L5178Y in vivo (Table 5)): significantly more active than cytosine arabinoside
PERCENT SURVIVAL (leukemic cells L5178Y; 20 mg/kg on day 5, 2 hours): 61%
PERCENT SURVIVAL (leukemic cells L5178Y; 40 mg/kg on day 5, 2 hours): 58%
PERCENT SURVIVAL (leukemic cells L5178Y; 100 mg/kg on day 5, 2 hours): 43%

Nc1ccn([C@@H]2O[C@H](COP(=O)(O)O)[C@@H](O)[C@@H]2O)c(=O)n1 [Cytosine Arabinoside 5'-Phosphate]
viability at 100 µM [5]: 54.8 ± 1.54%
viability at 10 µM [5]: 87.5 ± 5.18%
viability at 1 µM [5]: 93 ± 8.9%
viability at 0.1 µM [5]: 99 ± 5.21%
IC50 ([1]; Mus musculus, L5178Y, 72 hours): 0.27 µM

Nc1ccn([C@@H]2O[C@H](CO)[C@@H](O)[C@@H]2O)c(=O)n1 [Cytosine Arabinoside, cytosine arabinoside, reference compound]
change in life spans as compared with control animals ([2]; 13 mg/kg×4 (dose "equivalent" to 50 mg of Ia-11-diglyceride by molecular weight), inferred): no change in life spans
% CHANGE IN LIFE SPAN ([2]; 50.0 mg/kg daily i.p. ×4 days): +17.6%
AVERAGE SURVIVAL (DAYS ± S.E.) ([2]; 50.0 mg/kg daily i.p. ×4 days): 20.7 ± 5.4 days
% CHANGE IN WEIGHT ([2]; 50.0 mg/kg daily i.p. ×4 days, control +0.66): -6.90%
prolongation of survival times ([2]; 50 mg/kg/day×4): 18%
LD10 (LD10 (lethality)): 71 mg/kg/day×4
reduction of peak (day 4) number of IgM AFC/10^6 spleen cells ([3]; 11 mg/kg/day×4): 63%
reduction of peak (day 5) number of IgG AFC/10^6 spleen cells ([3]; 11 mg/kg/day×4): 55%
peak (day 5) number of IgG AFC/10^6 spleen cells ([3]; 11 mg/kg/day×4, from 494±123): 224±72 AFC/10^6 spleen cells
peak (day 4) number of IgM AFC/10^6 spleen cells ([3]; 11 mg/kg/day×4, from 495±130): 180±28 AFC/10^6 spleen cells
AFC ([3]; 50 mg/kg/day×4): background levels
inhibition of tumor cell growth ([4]; 200 mg/kg/day×4, determined by palpation): no inhibition of tumor cell growth
suppression of CMI-DTH reactions (CMI-DTH reactions; 11 or 50 mg/kg): poorly suppressed

Reference: US4291024A, “Cytotoxic liponucleotide analogs” (priority 1980, dated 1981)
